Assay results: patent publication EP3050886A1, “Fluorescent dyes and dye precursors” (Bürkert Werke GmbH, priority 2015, dated 2016)
Entries after “also recorded” stand apart in the source; their conditions may differ.

What was measured:
[1] = Absorption spectra / extinction coefficients; format: physicochemical; details: pro-fluorophores, PBS buffer containing 0.6 % glutaraldehyde at pH 7
Method: Absorption spectra were recorded in a 1-cm path length cuvette (Hellma, 104.002B-QS) on a SPECORD®-205 spectrometer from Analytik Jena.
The Extinction coefficients of the flourophores fluorescein, 5-carboxyfluorescein (5-CF), 5-carboxy Oregon Green™ (5-COG), 5-amido N-propyl Oregon Green (5-POG; Example 2) and 5-amido N-propyl fluorescein (5-PFA; Example 3) were measured in 0.1 M NaOH solution at pH 12.7.
The extinction coefficients of the pro-fluorophores 5-thiourea N-propyl fluorescein diacetate (5-PFDAT; Example 5), 5-propyl carboxylate fluorescein diacetate (5-PFDAE; Example 8), 5-amido N-propyl fluorescein diacetate (5-PFDA; Example 7), 5-carboxy Oregon Green diacetate (5-COGDA; Example 9), 5-amido N-propyl Oregon Green diacetate (5-POGDA; Example 6) and 5-amido N-propyl Oregon Green acetoxymethylester (5-POGAM; Example 10) were measured in PBS buffer containing 0.6 % glutaraldehyde at pH 7.

[2] = Short-term chemical stability (spontaneous fluorescence generation) in aqueous buffer; format: physicochemical; details: for chemical stability in aqueous solution (in words): PBS solution containing 0.6 % glutaraldehyde, 37°C; for relative speed of spontaneous fluorescence generation (spontaneous hydrolysis): relative to 5-CFDA, 15 µM, PBS containing 0.6 % glutaraldehyde, pH ~7, 37°C, 0-60 min
Method: The short-term chemical stability of the pro-fluorophores of the present invention in an aqueous buffer was evaluated by fluorometric measurement analysis after several minutes of storage at 37°C.
Each pro-fluorophore (5-CFDA, 5-PFDAE, 5-PFDAT, 5-PFDA, 5-COGDA, 5-POGDA, 5-POGAM) was dissolved in dimethylsulfoxide (DMSO) in order to prepare a 10 mM stock solution. Short-term stability studies (0-60 min) were performed in the absence of light at 37°C. The pro-fluorophore stock solutions were diluted into a PBS solution containing 0.6 % of glutaraldehyde (pH ∼7). The pro-fuorophore final concentration was 15 µM. Samples were stored in a fluorescence grade quartz cuvette having a volume of 1 ml. Fluorescence emission spectra between 500 and 540 nm were recorded every 10 minutes. The excitation wavelength used was 488 nm. Fluorometric measurement were made with a FluoroLog®-3. (Horiba Jobin Yvon) spectrofluorometer equipped with sample stirring. The same experiment was repeated three times (n = 3).
Thus, the slope of the straight line corresponds to the speed of spontaneous fluorescence generation.

[3] = system: Bacillus subtilis (B. subtilis) (ATCC 6633); test: Bacteria staining test, fluorescence microscopy; format: cell-based; details: viable or dead B. subtilis, Fig. 3d
Method: (§1) Escherichia coli (E. coli) (ATCC 8739) and Bacillus subtilis (B. subtilis) (ATCC 6633) strains were routinely grown in Luria Bertani (LB) broth or on LB agar plates for 18h at 37 °C. Waterborne environmental bacteria such as Enterobacter cloacae (E. cloacae), Chryseobacterium indologenes (C. indologenes), Pseudomonas aeruginosa (P. aeruginosa), and E. coli (EC18) were purchased from Eurofins™. Environmental bacteria were grown in LB broth or on casein-peptone soymeal-peptone agar plates for 18h at 37 °C.
(§2) For the staining tests, E. coli (ATCC 8739 or EC18), E. cloacae, C. indologenes, P. aeruginosa and B. subtilis were cultivated in Luria-Bertani (LB) broth until exponential phase at 37°C with shaking at 300 rpm revolutions per minutes (rpm). Bacteria were harvested and washed in sterile phosphate buffer saline solution (PBS) at pH […] by centrifugation at 10000 rpm for 3 min at room temperature (21 ± 2 °C). Then the bacteria were resuspended in PBS at a concentration of 1·10^9 bacteria/ml. Bacteria concentration was calculated according to the turbidity measure at 660 nm (A660nm=1 correspond to bacterial suspension at ∼ 5·10^8 bacteria/ ml).
(§3) Dead bacterial suspensions at 1·10^9 bacteria/ml (negative controls) of these five species of bacteria were prepared individually by addition of 20 µl of bleach containing 2.6 % active chlorine. Bacteria were treated with bleach solution for 15 min. Dead bacteria were washed twice in sterile PBS by centrifugation at 10000 rpm for 3 min at room temperature. The culturability of the negative controls was assessed by plating 100 µl of bacterial suspension onto LB agar or Caso agar and incubating the plates at 37 °C for 72 h.
(§4) Bacteria (100 µl suspension at 1·10^9 bacteria/ml) were stained with 10 µM or 15 µM of pro-fluorophore (5-CFDA, 5-PFDAE, 5-PFDAT, 5-PFDA, 5-COGDA, 5-POGDA or 5-POGAM) in 200 µl of PBS solution containing 0.6 % of glutaraldehyde. Bacteria were incubated at 37 °C for 10 - 60 min with pro-fluorophore in darkness. After bacterial staining, they were washed and resuspended in 100 µl of PBS as described above.
(§5) Staining of the bacterial suspension was observed under a fluorescent microscope. These bacteria were imaged with a Leica DM5500 microscope equipped with FITC filter. […] Images were collected with a 100x objective. Fluorescence intensity of stained bacterial suspension was also measured with FluoroLog®-3 (Horiba Jobin Yvon) spectrofluorometer equipped with sample stirring. Samples were placed in fluorescence grade quartz cuvette having a volume of 1 ml. The excitation wavelength used was 488 nm and emission wavelength used was 517 nm. The same experiment was repeated three times (n = 3).

[4] = system: Chryseobacterium indologenes; test: Bacteria staining test, fluorescence microscopy; format: cell-based; details: for fluorescence of stained viable bacteria compared with 5-CFDA: viable C. indologenes; for staining of viable versus dead bacteria: viable or dead C. indologenes, Fig. 3b
Method: as §1, §2, §3, §4, §5

Enterobacter cloacae = test: Bacteria staining test, fluorescence microscopy; format: cell-based; details: for fluorescence of stained viable bacteria compared with 5-CFDA: viable E. cloacae; for staining of viable versus dead bacteria: viable or dead E. cloacae, Fig. 3a
Method: as §1, §2, §3, §4, §5

Pseudomonas aeruginosa = test: Bacteria staining test, fluorescence microscopy; format: cell-based; details: for fluorescence of stained viable bacteria compared with 5-CFDA: viable P. aeruginosa; for staining of viable versus dead bacteria: viable or dead P. aeruginosa, Fig. 3c
Method: as §1, §2, §3, §4, §5

Citobacter freudii = test: Bacteria staining test, fluorescence microscopy (data not shown); format: cell-based
Method: as §4, §5
(§6) No fluorescence signal was detected by microscopy analysis with the dead bacteria.

[5] = system: Comamonas testosteroni/alcaligenes; test: as above; format: cell-based
Method: as §4, §5, §6

Klebsiella oxytoca = test: as above; format: cell-based
Method: as §4, §5, §6

E. coli (ATCC 8739) = test: Labeling of viable or dead E. coli, fluorescence microscopy; format: cell-based, Escherichia coli; details: 15 µM, 30 min at 37 °C, Figure 4
Method: as §1, §2, §3, §4, §5
The pro-fluorophores according to the present invention are preferably used to label E. coli cells. Viable or dead E. coli (ATCC 8739) are incubated with these fluorophores and commercial 5-CFDA as described above. […] Glutaraldehyde is added to the incubation solutions to improve the retention of the fluorophores in bacteria.
Bacteria were washed before being imaged with a Leica DM5500 microscope, 100x objective. Scale bars indicate 10 µm.

Structure (SMILES) | E (extinction coefficient) [1] [M⁻¹ cm⁻¹] | λAbs max [1] [nm] | chemical stability in aqueous solution (in words) [2] | relative speed of spontaneous fluorescence generation (spontaneous hydrolysis) [2] | staining of viable versus dead bacteria [3] | fluorescence of stained viable bacteria compared with 5-CFDA [4] | staining of viable versus dead bacteria [4] | fluorescence of stained viable bacteria compared with 5-CFDA (Enterobacter cloacae) | staining of viable versus dead bacteria (Enterobacter cloacae) | fluorescence of stained viable bacteria compared with 5-CFDA (Pseudomonas aeruginosa) | staining of viable versus dead bacteria (Pseudomonas aeruginosa) | staining of viable versus dead bacteria (Citobacter freudii) | staining of viable versus dead bacteria [5] | staining of viable versus dead bacteria (Klebsiella oxytoca) | staining of viable E. coli (microscopy) (E. coli (ATCC 8739))
CCCNC(=O)c1ccc2c(c1)C(=O)OC21c2cc(F)c(OCOC(C)=O)cc2Oc2cc(OCOC(C)=O)c(F)cc21 [Example 5-POGAM, 2',7'-difluoro-3-oxo-5-(propylcarbamoyl)-3H-spiroisobenzofuran-1,9'-xanthene-3',6'-diyl diacetoxymethyl ether] | 11165 ± 334 | 302 | greater chemical stability in aqueous solution; also recorded: much more stable in aqueous solution | almost four times slower | stained only viable | brighter fluorescence than 5-CFDA stained bacteria | stained only viable | brighter fluorescence than 5-CFDA stained bacteria | stained only viable | brighter fluorescence than 5-CFDA stained bacteria | stained only viable | The same results were obtained | The same results were obtained | The same results were obtained | specifically stained with high fluorescence intensity
CCCNC(=O)c1ccc2c(c1)C(=O)OC21c2cc(F)c(OC(C)=O)cc2Oc2cc(OC(C)=O)c(F)cc21 [Example 5-POGDA, 2',7'-difluoro-3-oxo-5-(propylcarbamoyl)-3H-spiro[isobenzofuran-1,9'-xanthene]-3',6'-diyl diacetate] | 9784 ± 351 | 303 | less stable | almost six times higher | stained only viable | brighter fluorescence than 5-CFDA stained bacteria | stained only viable | brighter fluorescence than 5-CFDA stained bacteria | stained only viable | brighter fluorescence than 5-CFDA stained bacteria | stained only viable | The same results were obtained | The same results were obtained | The same results were obtained | specifically stained with high fluorescence intensity
